Measured values: patent US20060084688A1, “Aromatic sulfone hydroxamic acid metalloprotease inhibitor” (priority 1997, published 2006)
Where a name gives a salt, the structure may show the parent alone. Read-outs that look alike come from different tables or passages of the source.

Key:
TNFrII = assay: Tumor necrosis factor assay: TNF Receptor II ELISA on supernatant of PMA-stimulated U-937 cells; conditions: Homo sapiens, U-937, read-out: TNFRII Release IC50 in micromolar
[1] = tested on: human monocytic line U-937; assay type: cell-based
recombinant human MMP-2 = target: T1, recombinant human MMP-2 (Homo sapiens, UniProt P08253); assay: biochemical; conditions: Inhibition Table B
T1 sequence (P08253 110-660): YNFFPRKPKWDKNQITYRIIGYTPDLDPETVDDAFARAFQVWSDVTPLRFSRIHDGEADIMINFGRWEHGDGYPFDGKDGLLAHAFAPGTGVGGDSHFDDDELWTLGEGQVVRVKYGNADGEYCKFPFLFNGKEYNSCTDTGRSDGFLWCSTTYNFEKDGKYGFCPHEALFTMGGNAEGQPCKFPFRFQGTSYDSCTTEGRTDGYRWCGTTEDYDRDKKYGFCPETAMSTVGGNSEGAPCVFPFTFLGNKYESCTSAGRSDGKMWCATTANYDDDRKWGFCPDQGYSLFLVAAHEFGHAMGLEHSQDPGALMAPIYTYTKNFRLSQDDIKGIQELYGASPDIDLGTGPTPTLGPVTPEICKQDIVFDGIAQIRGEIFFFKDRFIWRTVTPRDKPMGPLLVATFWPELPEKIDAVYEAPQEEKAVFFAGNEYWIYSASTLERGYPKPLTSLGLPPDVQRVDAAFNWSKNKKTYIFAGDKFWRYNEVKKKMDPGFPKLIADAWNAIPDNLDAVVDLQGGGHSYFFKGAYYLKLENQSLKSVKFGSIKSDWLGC

recombinant human MMP-1 = target: T2, recombinant human MMP-1 (Homo sapiens, UniProt P03956); assay: biochemical; conditions: Inhibition Table B
T2 construct: made in house; host or cells: transfected HT-1080 cells
T2 sequence (P03956 100-469): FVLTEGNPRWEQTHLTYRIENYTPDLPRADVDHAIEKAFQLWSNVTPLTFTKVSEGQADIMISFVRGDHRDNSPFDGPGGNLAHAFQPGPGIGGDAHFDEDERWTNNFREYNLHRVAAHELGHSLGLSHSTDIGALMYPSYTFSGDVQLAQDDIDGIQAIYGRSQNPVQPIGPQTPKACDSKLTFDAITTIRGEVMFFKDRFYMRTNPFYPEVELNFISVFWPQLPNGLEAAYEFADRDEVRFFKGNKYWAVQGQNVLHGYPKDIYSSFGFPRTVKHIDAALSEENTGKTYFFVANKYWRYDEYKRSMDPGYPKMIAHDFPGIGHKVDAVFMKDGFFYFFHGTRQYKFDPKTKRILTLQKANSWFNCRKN

recombinant human MMP-13 = recombinant human MMP-13 (Homo sapiens, UniProt P45452); assay: biochemical; conditions: Inhibition Table B

SMILES	t1/2 (Rat Intraveneous, 20 mpk) [h]	IC50 (TNFrII) [µM]	MTS Toxicity TD50 [1] [µM]	further results
O=C(NO)C1(S(=O)(=O)c2ccc(Sc3ccccc3)cc2)CCOCC1 [Example 95, Tetrahydro-N-hydroxy-4-[[4-(phenylthio)phenyl]sulfonyl]-2H-pyran-4-carboxamide]	1.06	> 100	>100	–
C#CCN1CCC(C(=O)NO)(S(=O)(=O)c2ccc(Oc3ccccc3)cc2)CC1.Cl [Example 6, N-hydroxy-4-[(4-phenoxyphenyl)sulfonyl]-1-(2-propynyl)-4-piperidinecarboxamide]	–	> 100	>100	–
C#CCN1CCC(C(=O)NO)(S(=O)(=O)c2ccc(Oc3ccc4c(c3)OCO4)cc2)CC1.Cl [Example 10, 4-[[4-(1,3-benzodioxol-5-yloxy)phenyl]sulfonyl]-N-hydroxy-1-(2-propynyl)-4-piperidinecarboxamide]	–	> 100	>100	–
C#CCN1CCC(C(=O)NO)(S(=O)(=O)c2ccc(SC3CCCCC3)cc2)CC1.Cl [Example 13, 4-[[4-(cyclohexylthio)-phenyl]sulfonyl]-N-hydroxy-1-(2-propynyl)-4-piperidinecarboxamide]	–	> 100	>100	–
O=C(NO)C1(S(=O)(=O)c2ccc(Oc3ccc(C(F)(F)F)cc3)cc2)CCOCC1 [Example 379]	1.74	> 100	80	–
O=C(NO)C1(S(=O)(=O)c2ccc(Oc3ccccc3)cc2)CCOCC1 [Example 94, Tetrahydro-N-hydroxy-4-[(4-phenoxyphenyl)sulfonyl]-2H-pyran-4-carboxamide]	1.71	–	–	–
NCC(=O)Nc1ccc(Sc2ccc(S(=O)(=O)C3(C(=O)NO)CCSCC3)cc2)cc1 [Example 118]	1.85	–	–	–
O=C(O)CNc1ccc(Oc2ccc(S(=O)(=O)C3(C(=O)NO)CCSCC3)cc2)cc1 [Example 117, tetrahydro-N-hydroxy-4-[[4-[4-hydroxyphenylglycine)]phenyl]sulfonyl 2H-thionyran-4-carboxamide]	0.78	–	–	–
Cl.O=C(NO)C1(S(=O)(=O)c2ccc(Oc3ccc4c(c3)OCCO4)cc2)CCN(C2CC2)CC1 [Example 408, 1-cyclopropyl-4-[[4-[(2,3-dihydro-1,4-benzodioxin-6-yl)oxy]phenyl]-sulfonyl]-N-hydroxy-4-piperidine-carboxamide, monohydrochloride]	3.30	–	–	–
O=C(NO)C1(S(=O)(=O)c2ccc(Oc3ccc(OC(F)(F)F)cc3)cc2)CCOCC1 [Example 69]	–	> 100	100	Blood Level @ 3 min (rat, in vivo, 20 mg/kg): 44000 ng/mL; BA (rat, in vivo, po, 20 mg/kg): 35.9%; Blood Level @ 6 hr (rat, in vivo, po, 20 mg/kg): 1172 ng/mL
CC(=O)N1CCC(C(=O)NO)(S(=O)(=O)c2ccc(Sc3ccccc3)cc2)CC1.Cl [Example 36, 1-acetyl-N-hydroxy-4-[[4-(phenylthio)phenyl]sulfonyl]-4-piperidinecarboxamide, monohydrochloride]	0.65	–	–	–
Cl.O=C(NO)C1(S(=O)(=O)c2ccc(Oc3ccc4c(c3)OCO4)cc2)CCN(C2CC2)CC1 [Example 421, 4-[[4-(1,3-benzodioxol-5-yloxy)phenyl]sulfonyl]-1-cyclopropyl-N-hydroxy-4-piperidinecarboxamide, monohydrochloride]	–	–	–	Blood Level @ 6 hr (rat, in vivo, po, 20 mg/kg): 206 ng/mL
C#CCN1CCC(C(=O)NO)(S(=O)(=O)c2ccc(Oc3ccc(C)c(C)c3)cc2)CC1.Cl [Example 43, 4-[[4-(3,4-Dimethylphenoxyl)phenyl]sulfonyl]-N-hydroxy-1-(2-propynyl)-4-piperidinecarboxamide, monhydrochloride]	0.82	–	–	–
Nc1ccc(Sc2ccc(S(=O)(=O)C3(C(=O)NO)CCSCC3)cc2)cc1 [Example 115, tetrahydro-N-hydroxy-4-[[4-[4-aminophenyl)thiophenoxy]phenyl]sulfonyl 2H-thionyran-4-carboxamide]	1.36	–	–	–
C#CCN1CCC(C(=O)NO)(S(=O)(=O)c2ccc(Oc3ccc(C(C)C)cc3)cc2)CC1.Cl [Example 414, N-hydroxy-4-[[4-[4-(1-methylethyl)phenoxy]phenyl]sulfonyl]-1-(2-propynyl)-4-piperidinecarboxamide, monohdyrochloride]	0.73	–	–	–
Cc1cc(Oc2ccc(S(=O)(=O)C3(C(=O)NO)CCNCC3)cc2)ccc1Cl.Cl [Example 79, 4-[[4-(4-chloro-3-methylphenoxy)phenyl]sulfonyl]-N-hydroxy-4-piperidinecarboxamide, monohydrochloride]	1.82	–	–	AUC (0-∞) (Rat Intraveneous, 20 mpk): 6110 ng·h/mL; Blood Level @ 3 min (Rat Intraveneous, 20 mpk, 3 min): 13990 ng/mL; AUC (0-6 hr) (Rat Oral, 20 mpk): 70 ng·h/mL; BA (Rat Oral, 20 mpk): 1.1%; Cmax (Rat Oral, 20 mpk): 20 ng/mL; Blood Level @ 6 hr (Rat Oral, 20 mpk, 6 hr): 10 ng/mL; IC50 (recombinant human MMP-2): 0.001 µM; IC50 (recombinant human MMP-1): > 10 µM; IC50 (recombinant human MMP-13): 0.0017 µM
C#CCN1CCC(C(=O)NO)(S(=O)(=O)c2ccc(Sc3ccccc3)cc2)CC1.Cl [Example 9, N-hydroxy-4-([4-(phenylthio)phenyl]sulfonyl]-1-(2-propynyl)-4-piperidinecarboxamide]	–	> 100	>100	–
O=C(NO)C1(S(=O)(=O)c2ccc(Sc3ccc(F)cc3)cc2)CCOCC1 [Example 103, 4-[[4-[(4-fluorophenyl)-thio]phenyl]sulfonyl]tetrahydro-N-hydroxy-2H-pyran-4-carboxamide]	1.10	–	–	–
O=C(NO)C1(S(=O)(=O)c2ccc(Oc3ccc(C(F)(F)F)cc3)cc2)CCN(Cc2cccnc2)CC1 [Example 390, N-hydroxy-1-(3-pyridinylmethyl)-4-[[4-(4-trifluoromethyl)phenoxy]phenyl]-sulfonyl]-4-piperidinecarboxamide, dihydrochloride]	1.50	–	–	–
Cl.O=C(NO)C1(S(=O)(=O)c2ccc(Oc3ccccc3)cc2)CCNCC1 [Example 4, N-hydroxy-4-[(4-phenoxyphenyl)sulfonyl]-4-piperidinecarboxamide]	–	> 100	>100	–
COCCN1CCC(C(=O)NO)(S(=O)(=O)c2ccc(Oc3ccc(C(F)(F)F)cc3)cc2)CC1.Cl [Example 418, N-hydroxy-1-(2-methoxyethyl)-4-[[4-[4-(trifluoromethyl)-phenoxy]phenyl]sulfonyl}-4-piperidinecarboxamide, monohydrochloride]	2.42	–	–	–
O=C(NO)C1(S(=O)(=O)c2ccc(Oc3ccc(C(F)(F)F)cc3)cc2)CCN(CCN2CCOCC2)CC1 [Example 388, N-hydroxy-1-[2-(4-morpholinyl)-ethyl]-4-[(4-(4-(trifluoromethyl)phenoxy]-phenyl]sulfonyl]-4-piperidinecarboxamide, dihydrochloride]	0.94	–	–	–
CCN1CCC(C(=O)NO)(S(=O)(=O)c2ccc(OCc3ccc(C(F)(F)F)cc3)cc2)CC1.Cl [Example 438, 1-ethyl-N-hydroxy-4-[(4-[[4-[trifluoromethyl)phenyl]methoxy]-phenyl]sulfonyl]-4-piperidine-carboxamide, monohydrochloride]	2.14	–	–	–
Cl.O=C(NO)C1(S(=O)(=O)c2ccc(Sc3ccc(F)cc3)cc2)CCN(C2CC2)CC1 [Example 27, 1-cyclopropyl-4-[[4-[(4-fluorophenyl)thio]phenyl]sulfonyl]-N-hydroxy-4-piperidinecarboxamide]	–	> 100	100	–
Cl.O=C(NO)C1(S(=O)(=O)c2ccc(Sc3ccccc3)cc2)CCN(C2CC2)CC1 [Example 32, 1-cyclopropyl-N-hydroxy-4-[[4-(phenylthio)phenyl]sulfonyl]-4-piperidine carboxamide, monohydrochloride]	1.03	–	–	–
COCCN1CCC(C(=O)NO)(S(=O)(=O)c2ccc(Sc3ccccc3)cc2)CC1.Cl [Example 35, N-hydroxy-1-(2-methoxyethyl)-4-[[4-(phenylthio)phenyl]-sulfonyl]-4-piperidinecarboxamide, monohydrochloride]	–	> 100	>100	–
